Laboratory results published in EP2951180B1, “2,6,7,8 SUBSTITUTED PURINES AS HDM2 INHIBITORS” (Merck Sharp & Dohme Corp., priority 2013, dated 2014).

Target: T1, HDM2 (Homo sapiens, UniProt Q00987)
T1 construct: Thioredoxin (N); made in house; host or cells: E. coli strain BL21(DE3)Rosetta
Assay: HDM2 FRET assay (inhibition of binding of FITC labeled p53-pocket peptide to HDM2)
Details: 0.5 nM HDM2 (residues 17 to 125), 3nM peptide, two hour incubation at room temperature; read-out: FRET IC50
How it was run: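 Displacement of FITC-p53 peptide (3 nM) from His-tagged HDM2 (0.5 nM) is measured by Tb-to-fluorescein FRET in PBS, 0.01% BSA, 0.01% Tween-20. IC50 values derive from 10-point curves.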

T1 sequence (Q00987 17-125): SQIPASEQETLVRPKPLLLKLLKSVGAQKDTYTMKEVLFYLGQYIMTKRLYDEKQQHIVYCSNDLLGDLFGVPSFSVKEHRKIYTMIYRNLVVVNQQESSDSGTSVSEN

Row | SMILES | IC50
1 | C[C@H]1CC[C@H](Cn2c(N3CCOC[C@H]3c3ccccc3)nc3nc(-c4noc(=O)[nH]4)nc(-c4cccc(C(F)F)c4)c32)CC1 [Example 16.31, 3-{6-[3-(difluoromethyl)phenyl]-7-[(trans-4-methylcyclohexyl)methyl]-8-[(3R)-3-phenylmorpholin-4-yl]-7H-purin-2-yl}-1,2,4-oxadiazol-5(4H)-one] | 0.00711 µM
2 | Cc1cccc(-c2nc(-c3n[nH]c(=O)o3)nc3nc(N4CCOC[C@H]4C)n(C[C@H]4CC[C@H](C)CC4)c23)c1 [Example 16.32, 5-{7-[(trans-4-methylcyclohexyl)methyl]-8-[(3R)-3-methylmorpholin-4-yl]-6-(3-methylphenyl)-7H-purin-2-yl} -1,3,4-oxadiazol-2(3H)-one] | 0.0605 µM
3 | C[C@H]1CC[C@H](Cn2c(N3CCOCC3)nc3nc(-c4n[nH]c(=O)o4)nc(-c4cccc(Cl)c4)c32)CC1 [Example 16.33, 5-{6-(3-chlorophenyl)-7-[(trans-4-methylcyclohexyl)methyl]-8-morpholin-4-yl-7H-purin-2-yl}-1,3,4-oxadiazol-2(3H)-one] | 0.163 µM
4 | Cc1cccc(-c2nc(-c3noc(=O)[nH]3)nc3nc(N4CCOC[C@@H]4C)n(C[C@H]4CC[C@H](C)CC4)c23)c1 [Example 16.34, 3-{7-[(trans-4-methylcyclohexyl)methyl]-8-[(3S)-3-methylmorpholin-4-yl]-6-(3-methylphenyl)-7H-purin-2-yl}-1,2,4-oxadiazol-5(4H)-one] | 0.503 µM
5 | C[C@H]1CC[C@H](Cn2c(N3CCOC[C@H]3c3ccccc3)nc3nc(-c4n[nH]c(=O)o4)nc(-c4cncc(Cl)c4)c32)CC1 [Example 16.35, 5-{6-(5-chloropyridin-3-yl)-7-[(trans-4-methylcyclohexyl)methyl]-8-[(3R)-3-phenylmorpholin-4-yl]-7H-purin-2-yl} -1,3,4-oxadiazol-2(3H)-one] | 0.000824 µM
6 | CC(C)(O)c1ccnc(-c2nc3nc(-c4noc(=O)[nH]4)nc(-c4cccc(Cl)c4)c3n2C[C@H]2CC[C@H](C)CC2)c1 [Example 16.36, 3-{6-(3-chlorophenyl)-8-[4-(1-hydroxy-1-methylethyl)pyridin-2-yl]-7-[(trans-4-methylcyclohexyl)methyl]-7H-purin-2-yl}-1,2,4-oxadiazol-5(4H)-one] | 0.0262 µM
7 | Cc1cccc(-c2nc(-c3n[nH]c(=O)o3)nc3nc(N4CCOC[C@@H]4C)n(C[C@H]4CC[C@H](C)CC4)c23)c1 [Example 16.37, 5-{7-[(trans-4-methylcyclohexyl)methyl]-8-[(3S)-3-methylmorpholin-4-yl]-6-(3-methylphenyl)-7H-purin-2-yl} -1,3,4-oxadiazol-2(3H)-one] | 1 µM
8 | C[C@H]1CC[C@H](Cn2c(N[C@@H](CO)c3ccccc3)nc3nc(-c4noc(=O)[nH]4)nc(-c4cccc(Cl)c4)c32)CC1 [Example 16.38, 3-{6-(3-chlorophenyl)-8-{[(1R)-2-hydroxy-1-phenylethyl]amino}-7-[(trans-4-methylcyclohexyl)methyl]-7H-purin-2-yl}-1,2,4-oxadiazol-5(4H)-one] | 0.00195 µM
9 | CC(C)C[C@H]1COCCN1c1nc2nc(-c3noc(=O)[nH]3)nc(-c3cccc(Cl)c3)c2n1C[C@H]1CC[C@H](C)CC1 [Example 16.39, 3-{6-(3-chlorophenyl)-7-[(trans-4-methylcyclohexyl)methyl]-8-[(3S)-3-(2-methylpropyl)morpholin-4-yl]-7H-purin-2-yl}-1,2,4-oxadiazol-5(4H)-one] | 0.0475 µM
10 | CC(C)C[C@@H]1COCCN1c1nc2nc(-c3noc(=O)[nH]3)nc(-c3cccc(Cl)c3)c2n1C[C@H]1CC[C@H](C)CC1 [Example 16.40, 3-{6-(3-chlorophenyl)-7-[(trans-4-methylcyclohexyl)methyl]-8-[(3R)-3-(2-methylpropyl)morpholin-4-yl]-7H-purin-2-yl}-1,2,4-oxadiazol-5(4H)-one] | 0.00459 µM
11 | CC(C)(CO)Nc1nc2nc(-c3noc(=O)[nH]3)nc(-c3cccc(Cl)c3)c2n1C[C@H]1CC[C@H](C)CC1 [Example 16.41, 3-{6-(3-chlorophenyl)-8-[(2-hydroxy-1,1-dimethylethyl)amino] -7-[(trans-4-methylcyclohexyl)methyl]-7H-purin-2-yl}-1,2,4-oxadiazol-5(4H)-one] | 0.0178 µM
12 | CC(C)[C@@H]1COCCN1c1nc2nc(-c3noc(=O)[nH]3)nc(-c3cccc(Cl)c3)c2n1C[C@H]1CC[C@H](C)CC1 [Example 16.42, 3-{6-(3-chlorophenyl)-7-[(trans-4-methylcyclohexyl)methyl]-8-[(3R)-3-(1-methylethyl)morpholin-4-yl]-7H-purin-2-yl}-1 ,2,4-oxadiazol-5(4H)-one] | 0.00362 µM
13 | C[C@H]1COCCN1c1nc2nc(-c3noc(=O)[nH]3)nc(-c3cncc(Cl)c3)c2n1C[C@H]1CC[C@H](C)CC1 [Example 16.43, 3-{6-(5-chloropyridin-3-yl)-7-[(trans-4-methylcyclohexyl)methyl]-8-[(3S)-3-methylmorpholin-4-yl]-7H -purin-2-yl}-1,2,4-oxadiazol-5(2H)-one] | 0.239 µM
14 | C[C@H]1CC[C@H](Cn2c(N3CCOC[C@H]3c3ccccc3)nc3nc(-c4noc(=O)[nH]4)nc(-c4cc(Cl)cc(CO)c4)c32)CC1 [Example 16.44, 3-{6-[3-chloro-5-(hydroxymethyl)phenyl]-7-[(trans-4-methylcyclohexyl)methyl]-8-[(3R)-3-phenylmorpholin-4-yl]-7H-purin-2-yl}-1,2,4-oxadiazol-5(4H)-one] | 0.000205 µM
15 | C[C@H]1CC[C@H](Cn2c(N3CCOC[C@H]3CO)nc3nc(-c4noc(=O)[nH]4)nc(-c4cccc(Cl)c4)c32)CC1 [Example 16.45, 3-{6-(3-chlorophenyl)-8-[(3R)-3-(hydroxymethyl)mor pholin-4-yl]-7-[(trans-4-methylcyclohexyl)methyl]-7H-purin-2-yl}-1,2,4-oxadiazol-5(4H)-one] | 0.0475 µM
16 | C[C@H](CO)Nc1nc2nc(-c3n[nH]c(=O)o3)nc(-c3cccc(Cl)c3)c2n1C[C@H]1CC[C@H](C)CC1 [Example 16.46, 5-{6-(3-chlorophenyl)-8-{[(1R)-2-hydroxy-1-methylethyl]amino}-7-[(trans-4-methylcyclohexyl)methyl]-7H-purin-2-yl}-1,3,4-oxadiazol-2(3H)-one] | 0.071 µM
17 | CC[C@@H]1COCCN1c1nc2nc(-c3noc(=O)[nH]3)nc(-c3cccc(Cl)c3)c2n1C[C@H]1CC[C@H](C)CC1 [Example 16.47, 3-{6-(3-chlorophenyl)-8-[(3R)-3-ethylmorpholin-4-yl]-7-[(trans-4-methylcyclohexyl)methyl]-7H-purin-2-yl}-1,2,4-oxadiazol-5(4H)-one] | 0.0111 µM
18 | COC(=O)[C@@H]1COCCN1c1nc2nc(-c3noc(=O)[nH]3)nc(-c3cccc(Cl)c3)c2n1C[C@H]1CC[C@H](C)CC1 [Example 16.48, methyl (3S)-4-[6-(3-chlorophenyl)-7-[(trans-4-methylcyclohexyl)methyl]-2-(5-oxo-4,5-dihydro-1,2,4-oxadiazol-3-yl)-7H-purin-8-yl]morpholine-3-carboxylate] | 0.0883 µM
19 | C[C@H](Nc1nc2nc(-c3noc(=O)[nH]3)nc(-c3cccc(Cl)c3)c2n1C[C@H]1CC[C@H](C)CC1)c1cccc(F)c1 [Example 16.49, 3-{6-(3-chlorophenyl)-8-{[(1S)-1-(3-fluorophenyl)ethyl]amino}-7-[(trans-4-methylcyclohexyl)methyl]-7H-purin-2-yl}-1,2,4-oxadiazol-5(4H)-one] | 0.00163 µM
20 | CC[C@H](Nc1nc2nc(-c3noc(=O)[nH]3)nc(-c3cccc(Cl)c3)c2n1C[C@H]1CC[C@H](C)CC1)c1ccccc1 [Example 16.50, 3-[6-(3-chlorophenyl)-7-[(trans-4-methylcyclohexyl)methyl]-8-{[(1S)-1-phenylpropyl]amino} -7H-purin-2-yl]-1,2,4-oxadiazol-5(4H)-one] | 0.00267 µM
21 | C[C@@H]1CNCCN1c1nc2nc(-c3noc(=O)[nH]3)nc(-c3cccc(Cl)c3)c2n1C[C@H]1CC[C@H](C)CC1 [Example 16.54, 3-{6-(3-chlorophenyl)-7-[(trans-4-methylcyclohexyl)methyl]-8-[(2R)-2-methylpiperazin-1-yl]-7H-purin-2-yl}-1,2,4-oxadiazol-5(4H)-one] | 0.059 µM
22 | C[C@H](Nc1nc2nc(-c3n[nH]c(=O)o3)nc(-c3cccc(Cl)c3)c2n1C[C@H]1CC[C@H](C)CC1)c1cccc(F)c1 [Example 16.55, 5-{6-(3-chlorophenyl)-8-{[(1S)-1-(3-fluorophenyl)ethyl]amino}-7-[(trans-4-methylcyclohexyl)methyl]-7H-purin-2-yl}-1,3,4-oxadiazol-2(3H)-one] | 0.00504 µM
23 | CN(Cc1ccccc1)c1nc2nc(-c3noc(=O)[nH]3)nc(-c3cccc(Cl)c3)c2n1C[C@H]1CC[C@H](C)CC1 [Example 16.56, 3-{8-[benzyl(methyl)amino]-6-(3-chlorophenyl)-7-[(trans-4-methylcyclohexyl)methyl]-7H-purin-2-yl}-1,2,4-oxadiazol-5(4H)-one] | 0.0429 µM
24 | C[C@H](O)[C@H](Nc1nc2nc(-c3n[nH]c(=O)o3)nc(-c3cccc(Cl)c3)c2n1C[C@H]1CC[C@H](C)CC1)c1ccccc1 [Example 16.57, 5-{6-(3-chlorophenyl)-8-{[(1R,2S)-2-hydroxy-1-phenylpropyl]amino} -7-[(trans-4-methylcyclohexyl)methyl]-7H-purin-2-yl}-1,3,4-oxadiazol-2(3H)-one] | 0.00554 µM
25 | CC[C@@H]1COCCN1c1nc2nc(-c3n[nH]c(=O)o3)nc(-c3cccc(Cl)c3)c2n1C[C@H]1CC[C@H](C)CC1 [Example 16.58, 5-{6-(3-chlorophenyl)-8-[(3R)-3-ethylmorpholin-4-yl]-7-[(trans-4-methylcyclohexyl)methyl]-7H-purin-2-yl}-1,3,4-oxadiazol-2(3H)-one] | 0.0214 µM
26 | COC[C@@H]1COCCN1c1nc2nc(-c3noc(=O)[nH]3)nc(-c3cccc(Cl)c3)c2n1C[C@H]1CC[C@H](C)CC1 [Example 16.59, 3-{6-(3-chlorophenyl)-8-[(3R)-3-(methoxymethyl)mor pholin-4-yl]-7-[(trans-4-methylcyclohexyl)methyl]-7H-purin-2-yl}-1,2,4-oxadiazol-5(4H)-one] | 0.019 µM
